Assay results reported in patent publication US9066516B2, “Uses of thaxtomin and thaxtomin compositions as herbicides” (priority 2008, dated 2015).

Experiments:
Type in all cases: in vivo
sedge = experiment: Greenhouse synergy test MBI-005 + commercial herbicides (Example 11); conditions: cyhalofop 1.176 mg/mL, 14 days
Procedure: (§1) The test species barnyard grass, ragweed, sedge, and broad-leaf mustard were used for the valuation of synergy between MBI-005 and the rice herbicides clomazone, penoxsulam, cyhalofop, fenoxaprop-p-ethyl, bispyribac-sodium, thiobencarb, and propanil.
(§2) There were 3 replicates per treatment which were sprayed with approximately ⅔ ml per replicate. The treatments were completely randomized and kept in a greenhouse at 25° C. The efficacy was rated at 7 and 14 days post treatment.

broad-leaf mustard = experiment: as above; conditions: cyhalofop 0.051 mg/mL, 14 days
Procedure: as §1, §2

sprangletop = experiment: Greenhouse test cyhalofop + thaxtomin A (Example 7); conditions: Cyhalofop 6.5 oz/acre, no thx A, 21-day evaluation
Procedure: (§3) Cyhalofop (2-[4-(4-cyano-2-fluorophenoxy)phenoxy]propanoic acid, butyl ester) is also mixed together with adjuvant containing ethyl oleate, polyethylene dialky ester and ethoxylated nonylphenol (2.5% v/v) and increasing concentrations of thaxtomin A (purified from the ATCC strain 49003) at concentrations 0.1, 0.2 and 0.4 mg/ml. The concentrations of the 2-[4-(4-cyano-fluorophenoxy)phenoxy]propanoic acid, butyl ester before dilution are 29.6% (2.38 lb/gal) and 21.7% (2 lb/gal), respectively. The effect of these mixtures on the growth of common water plantain, red stem, smallflower sedge and sprangletop is determined in the greenhouse. Similarly, rice plants of variety M104 are grown and tested for phytotoxic effects, and all plants are evaluated 7, 14, and 21 days after treatment.

common water plantain = experiment: as above; conditions: Cyhalofop 6.5 oz/acre, no thx A; 21-day evaluation
Procedure: as §3

red stem = experiment: as above; conditions: Cyhalofop 6.5 oz/acre, no thx A; 21-day evaluation
Procedure: as §3

smallflower sedge = experiment: as above; conditions: Cyhalofop 6.5 oz/acre, no thx A, 21-day evaluation
Procedure: as §3

For `CCCCOC(=O)C(C)Oc1ccc(Oc2ccc(C#N)cc2F)cc1` (centres unmarked) [Cyhalofop, 2-[4-(4-cyano-2-fluorophenoxy)phenoxy]propanoic acid, butyl ester], the “% Control Product” value (sedge) was 3.3%, the “% Control Product” value (broad-leaf mustard) was 11.7% and the Sprangletop % control (sprangletop) was 90%. For the same molecule, the Sprangletop % control (sprangletop; listed as Clincher CA) was “good efficacy against grass weeds”, the Waterplantain % control (common water plantain) was 8% and the Redstem % control (red stem) was 75%. For the same molecule, the Sedge % control (smallflower sedge) was 0% and the Sedge % control (smallflower sedge; listed as Clincher CA) was “poor on sedges”.
